US20170333515A1, “COMPOSITIONS AND METHODS FOR ENHANCING THE METABOLIC ACTIVITY OR STABILITY OF CURCUMIN” (priority 2015, published 2017)

What was measured:
[1] = Stability of curcumin in human liver microsomes in the absence and presence of 1 μM xanthohumol (Example 3); details: both
Procedure: The objective of this study was to determine the stability of curcumin in human liver microsomes in the absence and presence of xanthohumol at a concentration of 1 μM.
(§1) Mixed-gender human liver microsomes (Lot #1210347) were purchased from XenoTech. The reaction mixture, minus cofactors, was prepared as described below. The test article was added into the reaction mixture at a final concentration of 1 μM. second experiment was also performed with 1 μM xanthohumol also present in the reaction mixture. The control compounds, testosterone and 7-hydroxycoumarin (7-HC), were run simultaneously with the test article in separate reactions. An aliquot of the reaction mixture (without cofactors) was equilibrated in a shaking water bath at 37° C. for 3 minutes. The reaction was initiated by the addition of cofactors, and the mixture was incubated in a shaking water bath at 37° C. Aliquots (100 μL) were withdrawn at 0, 10, 20, 30, and 60 minutes for the test article and 0, 10, 30, and 60 minutes for testosterone and 7-HC. All samples were immediately combined with 400 μL of ice-cold 50/50 acetonitrile/H2O containing 0.1% formic acid and internal standard to terminate the reaction. The samples were then mixed and centrifuged to precipitate proteins. All samples were assayed by LC-MS/MS using electrospray ionization. Analytical conditions are outlined in Appendix 1. The peak area response ratio (PARR) to internal standard was compared to the PARR at time 0 to determine the percent remaining at each time point. Half-lives were calculated using GraphPad software, fitting to a single-phase exponential decay equation.

[2] = Stability of curcumin in human liver microsomes in the absence and presence of 10 μM xanthohumol (Example 4)
Procedure: The objective of this study was to determine the stability of curcumin in human liver microsomes in the absence and presence of xanthohumol at a concentration of 10 μM, which is 10 fold higher than the previous study.
The objective of this study was to determine the stability of curcumin in human liver microsomes in the absence and presence of 10 μM xanthohumol.
as §1, with “μM. A” for “μM.”, “with 10” for “with 1”

[3] = both, human, microsomes, Half-life

`C[C@]12CC[C@H]3[C@@H](CCC4=CC(=O)CC[C@@]43C)[C@@H]1CC[C@@H]2O` [Testosterone, testosterone] showed a microsomal CLint [1] of 74 µL/min/mg, a microsomal CLint ([2]; both, human, microsomes) of 57.7 µL/min/mg and a half-life ([2]; control compounds, human liver microsomes, separate reactions, Example 4) of 24 min.
`COc1cc(C=CC(=O)CC(=O)C=Cc2ccc(O)c(OC)c2)ccc1O` [Curcumin, 1,7-Bis(4-hydroxy-3-methoxyphenyl)-1,6-heptadiene-3,5-dione] gave a half-life at 1 μM ([1]; human, microsomes) of 4.4 min, a microsomal CLint at 1 μM ([1]; human, microsomes) of 313 µL/min/mg and a half-life ([2]; both, human, microsomes, 1 μM) of under 10 min. The microsomal CLint at 1 μM ([2]; both, human, microsomes, CLint) was over 139 µL/min/mg, the microsomal CLint at 1 μM ([2]; both, human, microsomes, CLint (value in parentheses)) was 296 µL/min/mg and the half-life at 1 μM [2, 3] was under 10 min. It also gave a half-life at 1 μM ([2]; both, human, microsomes, Half-life (value in parentheses)) of 4.7 min.
`O=c1ccc2ccc(O)cc2o1` [7-HC, 7-hydroxycoumarin] gave a half-life ([1]; human, microsomes) of 10 min, a microsomal CLint ([1]; human, microsomes) of 136 µL/min/mg and a microsomal CLint ([2]; both, human, microsomes, CLint) of 120 µL/min/mg. The half-life [2, 3] was 12 min.
